A word on the IC50: it is the concentration that inhibits the measured activity by half. For orientation: EC50 means the concentration that produces a half-maximal response. A word on the AC50: it is the concentration at which the activity in the assay is half-maximal.

SMILES strings stand for the structures. Active and inactive are the calls of the source. Where only a bound is given, the exact number is not on record here.

Results on 18 molecules are retold here after ChEMBL document CHEMBL1201862, “PubChem BioAssay data set” (2004).

One assay deals with T1, Hexokinase HKDC1 (Homo sapiens, UniProt Q2TB90).
T1 sequence (Q2TB90 whole entry): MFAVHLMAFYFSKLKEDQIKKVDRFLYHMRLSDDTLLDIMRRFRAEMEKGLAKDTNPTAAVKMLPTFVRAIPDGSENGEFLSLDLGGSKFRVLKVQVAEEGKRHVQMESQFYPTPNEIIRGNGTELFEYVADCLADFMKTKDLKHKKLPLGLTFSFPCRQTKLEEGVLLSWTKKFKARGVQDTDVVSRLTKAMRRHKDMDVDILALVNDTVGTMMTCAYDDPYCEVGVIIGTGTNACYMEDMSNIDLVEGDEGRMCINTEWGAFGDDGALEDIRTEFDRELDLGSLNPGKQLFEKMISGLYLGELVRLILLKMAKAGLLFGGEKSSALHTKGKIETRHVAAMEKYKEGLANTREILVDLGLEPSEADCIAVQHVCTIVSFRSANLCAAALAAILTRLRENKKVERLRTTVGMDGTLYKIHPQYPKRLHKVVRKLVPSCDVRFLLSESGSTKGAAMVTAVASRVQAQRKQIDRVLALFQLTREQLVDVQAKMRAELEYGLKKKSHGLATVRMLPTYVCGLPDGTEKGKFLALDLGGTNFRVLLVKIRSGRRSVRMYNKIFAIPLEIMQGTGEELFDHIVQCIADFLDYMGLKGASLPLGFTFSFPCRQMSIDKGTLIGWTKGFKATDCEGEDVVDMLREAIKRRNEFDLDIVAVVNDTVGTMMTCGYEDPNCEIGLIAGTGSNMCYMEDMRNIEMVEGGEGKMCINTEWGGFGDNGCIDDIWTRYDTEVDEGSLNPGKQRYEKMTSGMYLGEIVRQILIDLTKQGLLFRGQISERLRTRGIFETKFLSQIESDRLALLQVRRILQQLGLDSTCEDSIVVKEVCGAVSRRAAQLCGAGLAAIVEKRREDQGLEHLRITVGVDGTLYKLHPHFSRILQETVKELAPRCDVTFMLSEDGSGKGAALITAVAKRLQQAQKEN
Put plainly: inhibition of HKDC1 glucose phosphorylation – biochemical, W721R variant, dose response (AID 504729). Format: functional.

The nature of assay [1]: Trypanosoma cruzi growth suppression in host cells – NIH3T3 host cells, beta-gal luminescence, confirmation (AID 2044).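 Note: intracellular parasites grown in NIH/3T3 mouse fibroblasts as host cells; luminescent beta-galactosidase reporter signal from transgenic T. cruzi replicating inside host cells; inhibitors lower the luminescence signal.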 Format: functional, cell-based.
A short description of assay [2]: NIH3T3 cell viability loss – ATP luminescence, mouse fibroblasts, counter-screen, dose response (AID 2010).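 Note: cells exposed to compound for about 90 hours before reading.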 Format: functional, cell-based. In general terms: The purpose of a counterscreen is to sort out artefacts and off-target activity.
The target of the next assay is Beta-galactosidase (Escherichia coli, UniProt Q8VNN2). Put plainly: detection-enzyme interference by beta-gal modulators – biochemical, E. coli enzyme, set 3, artefact control for CCR6 antagonist project, dose response (AID 504712). The class given is functional.
Another assay has as its target T2, CAAX prenyl protease 2 (Saccharomyces cerevisiae S288c, UniProt Q03530).
T2 sequence (Q03530 whole entry): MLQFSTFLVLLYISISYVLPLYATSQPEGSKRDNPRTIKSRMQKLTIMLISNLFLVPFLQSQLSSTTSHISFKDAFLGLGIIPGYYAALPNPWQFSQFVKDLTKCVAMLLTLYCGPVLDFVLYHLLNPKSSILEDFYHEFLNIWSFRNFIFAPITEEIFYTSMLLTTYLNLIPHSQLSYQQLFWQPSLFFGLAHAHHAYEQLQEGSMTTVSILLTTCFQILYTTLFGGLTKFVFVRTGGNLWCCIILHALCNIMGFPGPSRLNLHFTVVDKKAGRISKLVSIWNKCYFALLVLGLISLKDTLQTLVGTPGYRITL
The class given is biochemical.

A further assay concerns the target Trypsin (Sus scrofa, UniProt P00761). The experiment in a line: trypsin protease activity blockade – biochemical, quenched peptide fluorescence, cherry-pick, selectivity assay for Rce1 protease inhibitor project, dose response (AID 488789).
In another assay the target is SUMO-activating enzyme (Homo sapiens, UniProt Q9UBT2). Put plainly: blockers of UBC9-mediated SUMO conjugation – biochemical, AlphaScreen, SUMOylation inhibitor project, confirmation (AID 2018). Format: functional.
Assay [3] deals with DNA damage-inducible transcript 3 protein (Mus musculus, UniProt P35639). Format: functional, Cricetulus griseus.
Another assay concerns the target Prothrombin (Homo sapiens, UniProt P00734). The experiment in a line: Thrombin 1536 HTS Dose Response Confirmation. [Related pubchem assays: 1046 (Thrombin 1536 HTS; hits were confirmed in this assay)]. The class given is functional.
For assay [4], the target named is DNA dC->dU-editing enzyme APOBEC-3G (Homo sapiens, UniProt Q9HC16). The class given is functional.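 Note: Dose-response counterscreen measuring inhibition of APOBEC3G DNA deaminase activity, run while confirming APOBEC3A inhibitors.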
In assay [5] the target is DNA dC->dU-editing enzyme APOBEC-3A (Homo sapiens, UniProt P31941). Put plainly: Dose Response confirmation of small molecule APOBEC3A DNA Deaminase Inhibitors via a fluorescence-based single-stranded DNA deaminase assay. [Related pubchem assays (depositor defined):AID493011, AID493024]. The class given is functional.
The target in assay [6] is T3, Carboxy-terminal domain RNA polymerase II polypeptide A small phosphatase 1 (Homo sapiens, UniProt Q9GZU7).
T3 sequence (Q9GZU7 whole entry): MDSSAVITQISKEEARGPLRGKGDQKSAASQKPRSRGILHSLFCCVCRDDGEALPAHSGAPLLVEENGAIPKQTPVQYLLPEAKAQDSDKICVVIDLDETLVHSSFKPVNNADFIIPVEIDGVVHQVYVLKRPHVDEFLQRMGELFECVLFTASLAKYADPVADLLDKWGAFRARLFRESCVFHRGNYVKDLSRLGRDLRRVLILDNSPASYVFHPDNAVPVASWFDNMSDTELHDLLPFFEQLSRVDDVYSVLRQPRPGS
Put plainly: CTDSP1 inhibitors, concentration-response, biochemical, absorbance readout, ultra-high-throughput screen actives (AID 540297). Format: functional.

Assay [7] has as its target T4, E3 ubiquitin-protein ligase XIAP (Homo sapiens, UniProt P98170). Put plainly: Counter Screen using XIAP-Bir3 for Chemical Antagonists of Bir1/2 domains of IAP-family anti-apoptotic proteins. [Related pubchem assays (depositor defined):AID1018, AID1449, AID1514, AID1638, AID1749, AID1750, AID488957, AID488963].
Assay [8] deals with T4, E3 ubiquitin-protein ligase XIAP. Put plainly: small molecules displacing peptide from XIAP – biochemical, IAP family, fluorescence polarization (AID 1018). Format: functional.
Assay [9] deals with Cyclin-dependent kinase 5/CDK5 activator 1 (Homo sapiens, UniProt Q00535). The experiment in a line: blockade of human CDK5 activity – biochemical, cherry-picked samples, set 2, dose response (AID 504545).
Assay [10] concerns the target T5, Short transient receptor potential channel 4 (Mus musculus, UniProt Q9QUQ5).
T5 sequence (Q9QUQ5 whole entry): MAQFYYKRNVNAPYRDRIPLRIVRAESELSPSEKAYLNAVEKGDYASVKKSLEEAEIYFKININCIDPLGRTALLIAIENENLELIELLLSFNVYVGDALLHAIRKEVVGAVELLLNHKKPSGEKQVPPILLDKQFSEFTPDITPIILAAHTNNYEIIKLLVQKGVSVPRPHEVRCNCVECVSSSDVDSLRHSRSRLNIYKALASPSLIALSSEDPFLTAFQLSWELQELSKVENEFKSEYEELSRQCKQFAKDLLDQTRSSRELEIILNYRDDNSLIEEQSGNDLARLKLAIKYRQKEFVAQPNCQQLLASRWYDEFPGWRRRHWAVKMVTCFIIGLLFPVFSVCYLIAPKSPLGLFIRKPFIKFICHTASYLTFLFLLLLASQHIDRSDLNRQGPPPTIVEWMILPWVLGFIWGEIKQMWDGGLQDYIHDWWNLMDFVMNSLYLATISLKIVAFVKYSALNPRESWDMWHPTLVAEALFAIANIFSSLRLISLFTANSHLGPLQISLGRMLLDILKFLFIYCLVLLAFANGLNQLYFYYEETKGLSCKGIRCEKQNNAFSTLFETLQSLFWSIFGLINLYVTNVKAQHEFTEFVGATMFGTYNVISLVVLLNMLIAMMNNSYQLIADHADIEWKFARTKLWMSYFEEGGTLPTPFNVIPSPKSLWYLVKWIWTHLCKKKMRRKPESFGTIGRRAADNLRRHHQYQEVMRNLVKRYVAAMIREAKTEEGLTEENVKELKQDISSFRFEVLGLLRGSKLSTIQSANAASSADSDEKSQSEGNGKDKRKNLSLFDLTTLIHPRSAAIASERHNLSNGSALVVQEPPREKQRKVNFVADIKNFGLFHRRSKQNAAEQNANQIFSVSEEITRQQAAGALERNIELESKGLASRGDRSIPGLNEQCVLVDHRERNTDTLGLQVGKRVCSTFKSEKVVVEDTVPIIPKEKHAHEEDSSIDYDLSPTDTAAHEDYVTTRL
The experiment in a line: potentiation of DAMGO-evoked TRPC4 calcium signal – cell-based, HEK293 TRPC4/mu-opioid, Fluo-4 calcium, EC20 DAMGO, dose response (AID 434941).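 Note: HEK293 cells coexpressing TRPC4 and mu opioid receptor stimulated by EC20 DAMGO.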 Format: functional.

Assay [11] addresses T5, Short transient receptor potential channel 4. The experiment in a line: calcium entry via TRPC4 opening agents – cell-based, HEK293 TRPC4/mu-opioid, Fluo-4 calcium, dose response (AID 434937). The class given is functional.

T4 sequence (P98170 whole entry): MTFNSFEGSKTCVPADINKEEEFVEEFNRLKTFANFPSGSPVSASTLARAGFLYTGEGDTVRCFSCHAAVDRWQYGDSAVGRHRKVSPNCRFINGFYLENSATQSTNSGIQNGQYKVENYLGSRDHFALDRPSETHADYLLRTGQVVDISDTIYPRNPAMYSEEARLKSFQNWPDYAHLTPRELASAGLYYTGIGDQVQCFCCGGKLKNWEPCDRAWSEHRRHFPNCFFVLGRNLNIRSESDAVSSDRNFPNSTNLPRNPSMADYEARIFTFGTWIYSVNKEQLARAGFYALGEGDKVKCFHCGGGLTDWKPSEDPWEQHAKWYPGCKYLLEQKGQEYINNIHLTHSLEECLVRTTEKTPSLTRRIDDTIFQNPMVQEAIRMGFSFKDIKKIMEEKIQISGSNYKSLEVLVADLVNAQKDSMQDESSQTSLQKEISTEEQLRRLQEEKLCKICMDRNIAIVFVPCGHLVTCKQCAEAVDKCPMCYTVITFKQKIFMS
Sequence of DNA damage-inducible transcript 3 protein (P35639 whole entry): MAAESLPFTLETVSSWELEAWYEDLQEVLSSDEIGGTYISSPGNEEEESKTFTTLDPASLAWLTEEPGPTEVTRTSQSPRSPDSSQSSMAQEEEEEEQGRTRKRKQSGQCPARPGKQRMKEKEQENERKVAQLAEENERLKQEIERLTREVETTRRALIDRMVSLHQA
Sequence of DNA dC->dU-editing enzyme APOBEC-3A (P31941 whole entry, the tested form may be a part): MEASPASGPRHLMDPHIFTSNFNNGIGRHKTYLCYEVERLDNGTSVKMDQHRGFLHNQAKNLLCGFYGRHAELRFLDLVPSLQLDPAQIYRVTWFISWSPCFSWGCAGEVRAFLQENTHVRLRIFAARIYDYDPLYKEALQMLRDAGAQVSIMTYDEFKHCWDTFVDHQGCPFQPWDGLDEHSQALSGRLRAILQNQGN
Sequence of DNA dC->dU-editing enzyme APOBEC-3G (Q9HC16 whole entry): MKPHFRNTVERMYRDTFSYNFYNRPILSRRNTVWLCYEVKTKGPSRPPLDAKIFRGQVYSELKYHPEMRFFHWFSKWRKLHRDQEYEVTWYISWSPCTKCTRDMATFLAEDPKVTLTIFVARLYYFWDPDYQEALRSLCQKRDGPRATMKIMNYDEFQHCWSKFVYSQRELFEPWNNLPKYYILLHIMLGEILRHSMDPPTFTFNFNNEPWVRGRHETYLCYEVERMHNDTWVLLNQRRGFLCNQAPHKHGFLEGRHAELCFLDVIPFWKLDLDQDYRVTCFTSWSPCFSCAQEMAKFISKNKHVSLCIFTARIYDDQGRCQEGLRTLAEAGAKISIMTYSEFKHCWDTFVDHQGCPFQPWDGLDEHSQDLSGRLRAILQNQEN
Sequence of SUMO-activating enzyme (Q9UBE0 whole entry): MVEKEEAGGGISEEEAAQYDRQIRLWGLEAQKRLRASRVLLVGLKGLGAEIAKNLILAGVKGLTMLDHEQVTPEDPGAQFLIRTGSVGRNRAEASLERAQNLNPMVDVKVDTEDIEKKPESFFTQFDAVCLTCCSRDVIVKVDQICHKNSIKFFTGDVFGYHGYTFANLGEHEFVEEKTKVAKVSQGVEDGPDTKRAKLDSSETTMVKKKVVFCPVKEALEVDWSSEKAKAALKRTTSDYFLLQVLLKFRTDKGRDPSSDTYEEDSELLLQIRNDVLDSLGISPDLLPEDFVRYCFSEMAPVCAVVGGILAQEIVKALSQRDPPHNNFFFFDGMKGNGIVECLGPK
Sequence of SUMO-activating enzyme (Q9UBT2 whole entry): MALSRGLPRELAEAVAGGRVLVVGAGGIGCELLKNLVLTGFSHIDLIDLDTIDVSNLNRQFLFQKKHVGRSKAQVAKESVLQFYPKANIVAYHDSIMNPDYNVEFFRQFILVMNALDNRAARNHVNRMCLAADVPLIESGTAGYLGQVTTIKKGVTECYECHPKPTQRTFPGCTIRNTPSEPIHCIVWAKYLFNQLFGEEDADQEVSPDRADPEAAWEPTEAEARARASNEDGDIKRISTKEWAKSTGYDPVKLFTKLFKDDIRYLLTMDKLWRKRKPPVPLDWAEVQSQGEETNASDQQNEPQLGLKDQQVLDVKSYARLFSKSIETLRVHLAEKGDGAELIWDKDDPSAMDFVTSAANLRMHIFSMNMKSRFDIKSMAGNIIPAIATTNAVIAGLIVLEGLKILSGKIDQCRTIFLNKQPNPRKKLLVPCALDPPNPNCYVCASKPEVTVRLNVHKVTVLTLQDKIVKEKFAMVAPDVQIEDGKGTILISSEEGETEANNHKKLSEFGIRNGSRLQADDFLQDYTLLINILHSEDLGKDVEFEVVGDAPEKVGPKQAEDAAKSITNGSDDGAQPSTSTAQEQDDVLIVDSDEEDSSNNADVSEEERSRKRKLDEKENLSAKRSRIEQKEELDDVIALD
Sequence of Cyclin-dependent kinase 5/CDK5 activator 1 (Q00535 whole entry): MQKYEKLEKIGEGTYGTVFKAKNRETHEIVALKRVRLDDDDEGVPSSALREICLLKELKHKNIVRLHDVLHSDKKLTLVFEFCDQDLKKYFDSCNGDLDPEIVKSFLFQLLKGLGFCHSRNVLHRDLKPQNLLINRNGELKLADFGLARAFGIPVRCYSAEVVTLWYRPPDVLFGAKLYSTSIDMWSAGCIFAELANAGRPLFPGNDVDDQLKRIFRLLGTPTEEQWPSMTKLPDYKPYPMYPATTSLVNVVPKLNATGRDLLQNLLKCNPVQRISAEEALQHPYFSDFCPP
Sequence of Cyclin-dependent kinase 5/CDK5 activator 1 (Q15078 whole entry, further chain): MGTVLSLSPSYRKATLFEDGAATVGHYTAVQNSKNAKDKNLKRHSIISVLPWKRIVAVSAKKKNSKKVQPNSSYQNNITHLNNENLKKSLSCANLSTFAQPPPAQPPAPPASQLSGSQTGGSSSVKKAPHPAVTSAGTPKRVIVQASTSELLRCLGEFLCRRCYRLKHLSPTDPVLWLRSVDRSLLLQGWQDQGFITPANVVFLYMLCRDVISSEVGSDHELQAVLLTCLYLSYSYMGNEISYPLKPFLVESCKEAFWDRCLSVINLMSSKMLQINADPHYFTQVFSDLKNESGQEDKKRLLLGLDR
Sequence of Trypsin (P00761 whole entry): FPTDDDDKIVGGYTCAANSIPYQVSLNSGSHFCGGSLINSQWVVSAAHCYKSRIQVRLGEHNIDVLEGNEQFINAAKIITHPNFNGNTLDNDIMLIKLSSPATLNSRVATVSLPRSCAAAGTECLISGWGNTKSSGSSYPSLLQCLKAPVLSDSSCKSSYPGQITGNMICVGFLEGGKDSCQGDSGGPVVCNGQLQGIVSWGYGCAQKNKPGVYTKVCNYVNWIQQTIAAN
Sequence of Beta-galactosidase (Q8VNN2 whole entry): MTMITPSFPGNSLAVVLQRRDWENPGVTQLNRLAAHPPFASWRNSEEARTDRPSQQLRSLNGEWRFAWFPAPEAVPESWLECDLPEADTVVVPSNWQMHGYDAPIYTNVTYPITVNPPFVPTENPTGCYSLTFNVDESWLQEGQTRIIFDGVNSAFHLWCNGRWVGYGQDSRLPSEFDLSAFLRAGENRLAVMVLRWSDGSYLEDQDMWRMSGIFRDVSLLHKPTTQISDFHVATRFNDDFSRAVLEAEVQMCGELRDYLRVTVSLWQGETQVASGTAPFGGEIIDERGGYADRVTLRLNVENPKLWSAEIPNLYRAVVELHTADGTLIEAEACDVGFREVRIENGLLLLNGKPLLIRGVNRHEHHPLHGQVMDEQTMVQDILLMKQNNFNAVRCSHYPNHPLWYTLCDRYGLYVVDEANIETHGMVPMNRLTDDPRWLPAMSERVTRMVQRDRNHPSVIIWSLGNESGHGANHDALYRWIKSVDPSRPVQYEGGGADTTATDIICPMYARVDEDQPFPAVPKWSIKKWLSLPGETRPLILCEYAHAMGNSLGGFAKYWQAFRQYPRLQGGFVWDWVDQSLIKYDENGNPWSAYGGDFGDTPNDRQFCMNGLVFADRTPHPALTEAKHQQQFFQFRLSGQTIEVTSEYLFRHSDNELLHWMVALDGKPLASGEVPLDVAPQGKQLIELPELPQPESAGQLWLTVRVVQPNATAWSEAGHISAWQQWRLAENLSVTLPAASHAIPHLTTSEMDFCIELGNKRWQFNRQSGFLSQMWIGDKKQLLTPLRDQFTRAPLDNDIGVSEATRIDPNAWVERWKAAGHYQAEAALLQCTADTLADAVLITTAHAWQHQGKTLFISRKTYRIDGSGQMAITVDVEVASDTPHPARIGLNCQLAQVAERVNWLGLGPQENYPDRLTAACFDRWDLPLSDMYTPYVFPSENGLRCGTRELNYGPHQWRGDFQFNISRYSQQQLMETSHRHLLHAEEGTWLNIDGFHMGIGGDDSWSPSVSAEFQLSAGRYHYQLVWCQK

With `O=Cc1[nH]c2ccccc2c1N(C(=O)CCl)c1ccccc1`, the IC50 at Hexokinase HKDC1 is 43.4 µM (inactive).
For `C/C(CC1CC2=C(CC1(C)C)C(C)(C)CCC2)=N\NC(N)=S` (configuration not stated), the EC50 in [1] is < 0.1 µM (active); in the assay “cells”, 0.139 µM (active); in [2], > 60 µM (not active). For the same molecule, the IC50 on Beta-galactosidase is > 66.6 µM (inactive).
Turning to `CCc1cc(=O)oc2c3c(cc(OCC(=O)NCCCCCC(=O)O)c12)OC(C)(C)CC3`, the results for the AC50 on CAAX prenyl protease 2 and at Trypsin were 14 µM (active) and 4.32 µM (active), respectively. In addition, the IC50 at SUMO-activating enzyme was > 100 µM (inactive).
With `COc1ccccc1-c1nnc(NC(=O)c2ccc(S(=O)(=O)N(C)Cc3ccccc3)cc2)o1`, the “Absolute IC50 (CHOP)” value in assay [3] came to 10 µM.
Regarding `COc1ccc(C2CC(c3ccccc3)=NN2C(=O)CN2CCN(Cc3ccccc3)CC2)cc1` (configuration not stated), the IC50 against Prothrombin is recorded as > 50 µM (not active).
As for `Nc1c(C(=O)NCc2ccco2)c2nc3ccccc3nc2n1CCc1ccc(F)cc1`, on SUMO-activating enzyme, the IC50 was 34.7 µM (active).
Consider `CCOc1ccc(OCCCC(=O)N2CCN(S(=O)(=O)c3ccc(Cl)cc3)CC2)cc1`, for which the IC50 in assay [4] is 2.23 µM (active); in assay [5], 2.04 µM (active); in assay [6], 6.6 µM (active).
Take `Nc1c(NC2CCCCC2)c2ccccc2oc1=O`: the figures for the IC50 in assay [7] and in assay [8] were > 100 µM (inactive) and > 100 µM (not active), respectively.
In the case of `O=C(Cc1ccc(O)cc1)NCCN=C(S)NCc1ccccc1`, the AC50 in assay [9] was 27.6 µM (active).
Turning to `C#CCOCCOCCOCCNc1nc(N2CCN(C(=O)Cn3cc(CC(C)O)nn3)CC2)nc(N2CCN(C(=O)[C@H](C)n3cc(CCCN=C(N)N)nn3)CC2)n1` (some centres not stated), on Prothrombin, the IC50 was 6.8 µM (active).
For `O=[N+]([O-])c1ccc(/C=N/Nc2nc(N3CCCCC3)nc(N3CCCCC3)n2)o1`, the EC50 was 0.225 µM (active) in assay [1], 5.96 µM (active) in assay [10] and > 60 µM (inconclusive) in assay [2].
As for `O=C(NNC(=O)c1cccc2ccccc12)c1ccc(-c2ccccc2)cc1`, in assay [3], the “Absolute IC50 (CHOP)” value was found to be 10 µM.
With `CCN(CC)c1ccc(S(=O)(=O)N2CCOCC2)cc1NC(=O)CSc1cccc[n+]1[O-]`, the results for the IC50 in assay [7] and in assay [8] were > 100 µM (inactive) and > 100 µM (not active), respectively.
In the case of `C[C@@H]1CC2(CCCC[N+]2(C)C)C[C@H]1C`, the IC50 is 3.7 µM (active) in [4] and 1.61 µM (active) in assay [5].
As to `Nc1cc(N2CCNCC2)ccc1[N+](=O)[O-]`, the results for the EC50 in [11] and in assay [10] were 1.19 µM (active) and 0.19 µM (active), respectively.
For the molecule `Nc1nc(CN2CCCCC2)cs1`, the IC50 against Prothrombin is on record as > 50 µM (not active).
On to `Cc1ccc(/C=C2\SC(=S)N(CCC(=O)NNS(=O)(=O)c3ccc(C)cc3)C2=O)cc1`, for which the IC50 is > 100 µM (inactive) in assay [7] and > 100 µM (not active) in [8].
As for `Cc1ccc(S(=O)(=O)N2CCC(N3CCN(C)CC3)CC2)cc1Cl`, in assay [10], the EC50 was 0.94 µM (active).
